Reference: ChEMBL document CHEMBL5055627 (J Med Chem, 2021)
pIC50: −log10 of the molar value.

Tests used:
[1] = Inhibition of Mycobacterium tuberculosis 20S proteasome open gate mutant expressed in Escherichia coli BL21(DE3) using Suc-LLVY-AMC as substrate measured over 1.5 to 2 hrs by plate reader assay
[2] = system: human 20S immunoproteasome subunit beta-5i (versus Mycobacterium tuberculosis 20S open gate mutant); assay: Selectivity index, ratio of IC50 for human 20S immunoproteasome subunit beta-5i to IC50 for Mycobacterium tuberculosis 20S open gate mutant; format: toxicity; conditions: read-out: Ratio IC50
[3] = system: human 20S constitutive proteasome subunit beta-5c (versus Mycobacterium tuberculosis 20S open gate mutant); assay: Selectivity index, ratio of IC50 for human 20S constitutive proteasome subunit beta-5c to IC50 for Mycobacterium tuberculosis 20S open gate mutant; format: toxicity; conditions: read-out: Ratio IC50

SMILES | pIC50 [1] | selectivity ratio [2] | selectivity ratio [3]
O=C1CCCCCCCCOC[C@@H](C(=O)NCc2cccc3ccccc23)NC(=O)[C@H](CC(=O)N2CCCC2)N1 | 7.00 |  | 
O=C1CCCCCCCCC[C@@H](C(=O)NCc2cccc3ccccc23)NC(=O)[C@H](CC(=O)N2CCCC2)N1 | 6.15 |  | 
O=C1CCc2cccc(c2)Oc2ccc(cc2)C[C@@H](C(=O)NCc2ccccc2F)NC(=O)[C@H](CC(=O)N2CCCC2)N1 | 6.70 | 108 | 
O=C1CCCCCCCCOC[C@@H](C(=O)NCc2ccccc2F)NC(=O)[C@H](CC(=O)N2CCC[C@@H]2c2ccccc2)N1 | 8.15 | > 14000 | > 14000
O=C1CCc2cccc(c2)OCCCC[C@@H](C(=O)NCc2ccccc2F)NC(=O)[C@H](CC(=O)N2CCC[C@H]2C2CC2)N1 | 7.10 | 11 | 19
Cc1ccc(CNC(=O)[C@@H]2Cc3cccc(c3)Oc3cccc(c3)C[C@H](N)C(=O)N[C@@H](CCc3ccccc3)C(=O)N2)cc1 | < 4.00 |  | 
CC(=O)N[C@H]1Cc2cccc(c2)Oc2ccc(cc2)C[C@@H](C(=O)NCc2ccccc2F)NC(=O)[C@H](CC(=O)N2CCC[C@@H]2c2ccccc2)NC1=O | 6.77 | > 594 | > 594
O=C1CCc2cccc(c2)OCCCC[C@@H](C(=O)NCc2ccccc2F)NC(=O)[C@H](CCN2CCC[C@@H]2c2ccccc2)N1 | 5.82 | 31 | 57
CCN(CC)C(=O)C[C@H](NC(=O)CCc1ccccc1)C(=O)N[C@@H](Cc1ccc(F)cc1)C(=O)NCc1cccc2ccccc12 | 7.82 | 3650 | 4670
O=C1CCCCCCCCCC[C@@H](C(=O)NCc2cccc3ccccc23)NC(=O)[C@H](CC(=O)N2CCCC2)N1 | 6.82 |  | 
O=C1CCc2cccc(c2)OCCCC[C@@H](C(=O)NCc2ccccc2F)NC(=O)[C@H](CC(=O)N2CCC[C@@H]2C2CC2)N1 | 8.15 | 11 | 11
O=C1CCc2cccc(c2)OCCCC[C@@H](C(=O)NCc2ccccc2F)NC(=O)[C@H](CC(=O)N2CCC[C@@H]2c2ccccc2)N1 | 8.15 | > 14000 | > 14000
O=C1N[C@@H](CC(=O)N2CCCC2)C(=O)N[C@H](C(=O)NCc2cccc3ccccc23)CCCCCCCCCC1Cc1ccccc1 (some centres undefined) | 5.30 |  | 
O=C1CCc2cccc(c2)Oc2ccc(cc2)C[C@@H](C(=O)NCc2ccccc2F)NC(=O)[C@H](CC(=O)N2CCC[C@@H]2c2ccccc2)N1 | 8.13 | > 13600 | > 13600
O=C(N[C@H]1Cc2cccc(c2)Oc2ccc(cc2)C[C@@H](C(=O)NCc2ccccc2F)NC(=O)[C@H](CC(=O)N2CCC[C@@H]2c2ccccc2)NC1=O)c1ccccc1 | 6.08 | > 119 | > 119
